This is an account of results in PubChem BioAssay AID248 (DTP/NCI, 2004).

Each structure is given as a SMILES string. “And” between values parts separate entries of the source, which are not always exact repeats. Identical values can stand only once. Inconclusive results and toxic doses are left out.

The subject of the experiment is L1210 leukemia ip in BDF1 mice, survival T/C. Briefly: NCI In Vivo Anticancer Drug Screen. Data for tumor model L1210 Leukemia (intraperitoneal) in B6D2F1 (BDF1) mice. The conditions noted are these: endpoint: mean survival time, higher = longer survival. The method, boiled down:
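Transplantable tumor model; survival measured in treated vs vehicle control mice. Value = treated/control.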

[1] abbreviates: dose: 100.0 mg/kg/injection, schedule: Q04DX002 (ip), vehicle: Klucel (hydroxypropylcellulose) (HPC).
The mark [2] stands for this setting: dose: 200.0 mg/kg/injection, schedule: Q04DX002 (ip), vehicle: Klucel (hydroxypropylcellulose) (HPC).
[3] abbreviates: dose: 100.0 mg/kg/injection, schedule: Q04DX003 (ip), vehicle: Klucel (hydroxypropylcellulose) (HPC).
[4] abbreviates: dose: 200.0 mg/kg/injection, schedule: Q04DX003 (ip), vehicle: Klucel (hydroxypropylcellulose) (HPC).
Setting [5] is: dose: 100.0 mg/kg/injection, schedule: Q01DX001 (ip), vehicle: carboxymethylcellulose (CMC).
The mark [6] stands for this setting: dose: 200.0 mg/kg/injection, schedule: Q01DX001 (ip), vehicle: carboxymethylcellulose (CMC).
[7] abbreviates: dose: 400.0 mg/kg/injection, schedule: Q01DX001 (ip), vehicle: carboxymethylcellulose (CMC).
[8] abbreviates: dose: 100.0 mg/kg/injection, schedule: Q01DX009 (ip), vehicle: saline with Tween-80.
Setting [9] is: dose: 200.0 mg/kg/injection, schedule: Q01DX009 (ip), vehicle: saline with Tween-80.

`Cc1c(F)cccc1NCC(=O)NN`: the T/C under setting [1] was 101 % of control and the T/C under setting [2] is 115 % of control.
With `Cc1cccc(Cl)c1NC(=O)C(C)N1CCCC1` (stereo not given), the T/C was 101 % of control (dose: 12.5 mg/kg/injection, schedule: Q01DX009 (ip), vehicle: saline); 98 % of control (dose: 25.0 mg/kg/injection, schedule: Q01DX009 (ip), vehicle: saline); 93 % of control (dose: 50.0 mg/kg/injection, schedule: Q01DX009 (ip), vehicle: saline).
Regarding `CC(C)(C)c1cc(O)c(C(C)(C)C)cc1O`, the T/C runs as follows: (dose: 50.0 mg/kg/injection, schedule: Q01DX001 (ip), vehicle: saline) 90 % of control; (dose: 100.0 mg/kg/injection, schedule: Q01DX001 (ip), vehicle: saline) 96 % of control; (dose: 100.0 mg/kg/injection, schedule: Q04DX002 (ip), vehicle: gum acacia) 106 % of control; (dose: 200.0 mg/kg/injection, schedule: Q01DX001 (ip), vehicle: saline) 94 % of control; (dose: 200.0 mg/kg/injection, schedule: Q04DX002 (ip), vehicle: gum acacia) 106 % of control; (dose: 400.0 mg/kg/injection, schedule: Q01DX001 (ip), vehicle: saline) 98 % of control. In addition, the T/C (dose: 400.0 mg/kg/injection, schedule: Q04DX002 (ip), vehicle: gum acacia) was 108 % of control.
As to `NC(=O)C(Br)c1ccccc1` (stereo not given), the T/C under setting [3] was 101 % of control and the T/C under setting [4] was 98 % of control.
`CC(O)c1ccc2c(c1)Cc1ccccc1-2` (stereo not given): the T/C reads like this: (dose: 50.0 mg/kg/injection, schedule: Q01DX001 (ip), vehicle: carboxymethylcellulose (CMC)) 104 % of control; under setting [5], 91 % of control; under setting [6], 91 % of control; under setting [7], 91 % of control.
For `CC(C)C1C(=O)N2CCCC2C2(O)OC(C(=O)NCCc3ccccc3)(C(C)C)C(=O)N12` (stereo not given), the T/C (dose: 25.0 mg/kg/injection, schedule: Q04DX003 (ip), vehicle: alcohol) is 98 % of control; the T/C (dose: 50.0 mg/kg/injection, schedule: Q04DX003 (ip), vehicle: alcohol) was 105 % of control and 100 % of control; the T/C (dose: 100.0 mg/kg/injection, schedule: Q04DX003 (ip), vehicle: alcohol) was 100 % of control and 104 % of control; the T/C (dose: 200.0 mg/kg/injection, schedule: Q04DX003 (ip), vehicle: alcohol) is 100 % of control and 102 % of control; the T/C (dose: 400.0 mg/kg/injection, schedule: Q04DX003 (ip), vehicle: alcohol) is 93 % of control.
As to `O=C(COc1ccc(Cl)cc1)Nc1nccs1`, the T/C by setting is: under setting [8], 96 % of control; under setting [9], 89 % of control; (dose: 400.0 mg/kg/injection, schedule: Q01DX009 (ip), vehicle: saline with Tween-80) 92 % of control.
Take `CC(C)=NNC(=O)c1ccc(N)cc1`: the T/C runs as follows: under setting [8], 91 % of control; under setting [9], 101 % of control.
With `O=S(=O)(O)c1ccc(Cl)c(Cl)c1`, the T/C runs as follows: (dose: 100.0 mg/kg/injection, schedule: Q04DX002 (ip), vehicle: saline) 107 % of control; (dose: 200.0 mg/kg/injection, schedule: Q04DX002 (ip), vehicle: saline) 100 % of control; (dose: 400.0 mg/kg/injection, schedule: Q04DX002 (ip), vehicle: saline) 107 % of control.
With `CC(=O)OCC1OC(N2C(=O)/C(=C/c3ccncc3)SC2=S)C(OC(C)=O)C(OC(C)=O)C1OC(C)=O` (stereo not given), the T/C by setting is: (dose: 25.0 mg/kg/injection, schedule: Q01DX005 (ip), vehicle: other) 97 % of control; (dose: 50.0 mg/kg/injection, schedule: Q01DX005 (ip), vehicle: other) 94 % of control; (dose: 100.0 mg/kg/injection, schedule: Q01DX005 (ip), vehicle: other) 97 % of control; (dose: 400.0 mg/kg/injection, schedule: Q01DX005 (ip), vehicle: other) 86 % of control.
Regarding `CCc1ccccc1NC(=O)Sc1cccc(C)c1`, the T/C runs as follows: (dose: 25.0 mg/kg/injection, schedule: Q01DX009 (ip), vehicle: Klucel (hydroxypropylcellulose) (HPC)) 96 % of control; (dose: 50.0 mg/kg/injection, schedule: Q01DX009 (ip), vehicle: Klucel (hydroxypropylcellulose) (HPC)) 96 % of control; (dose: 100.0 mg/kg/injection, schedule: Q01DX009 (ip), vehicle: Klucel (hydroxypropylcellulose) (HPC)) 98 % of control and 103 % of control; under setting [3], 100 % of control; under setting [4], 105 % of control.
Regarding `N#Cc1ccc2c(c1)Cc1cc([N+](=O)[O-])ccc1-2`, the T/C was 100 % of control under setting [5], 105 % of control under setting [6] and 91 % of control under setting [7].
For `CN=C(NC)c1ccc(NC(=O)CCc2ccc(C(=O)Nc3ccc(C(=NC)NC)cc3)cc2)cc1`, the T/C was 94 % of control (dose: 0.75 mg/kg/injection, schedule: Q01DX Z (ip), vehicle: carboxymethylcellulose (CMC)); 90 % of control (dose: 1.5 mg/kg/injection, schedule: Q01DX Z (ip), vehicle: carboxymethylcellulose (CMC)); 93 % of control (dose: 3.0 mg/kg/injection, schedule: Q01DX Z (ip), vehicle: carboxymethylcellulose (CMC)); 113 % of control (dose: 6.0 mg/kg/injection, schedule: Q01DX Z (ip), vehicle: carboxymethylcellulose (CMC)); 168 % of control (dose: 10.5 mg/kg/injection, schedule: Q01DX Z (ip), vehicle: carboxymethylcellulose (CMC)); 101 % of control (dose: 50.0 mg/kg/injection, schedule: Q01DX Z (oral), vehicle: carboxymethylcellulose (CMC)). Also, the T/C runs as follows: (dose: 100.0 mg/kg/injection, schedule: Q01DX Z (oral), vehicle: carboxymethylcellulose (CMC)) 105 % of control; (dose: 200.0 mg/kg/injection, schedule: Q01DX Z (oral), vehicle: carboxymethylcellulose (CMC)) 103 % of control; (dose: 400.0 mg/kg/injection, schedule: Q01DX Z (oral), vehicle: carboxymethylcellulose (CMC)) 94 % of control.
Take `O=C1Nc2ccccc2C1Cc1cc2c(nn1)[nH]c1ccccc12` (stereo not given): the T/C reads like this: (dose: 12.5 mg/kg/injection, schedule: Q04DX002 (ip), vehicle: Klucel (hydroxypropylcellulose) (HPC)) 95 % of control; (dose: 25.0 mg/kg/injection, schedule: Q04DX002 (ip), vehicle: Klucel (hydroxypropylcellulose) (HPC)) 106 % of control; (dose: 50.0 mg/kg/injection, schedule: Q04DX002 (ip), vehicle: Klucel (hydroxypropylcellulose) (HPC)) 103 % of control; under setting [1], 122 % of control; under setting [2], 96 % of control; (dose: 400.0 mg/kg/injection, schedule: Q04DX002 (ip), vehicle: Klucel (hydroxypropylcellulose) (HPC)) 92 % of control.
`O=[N+]([O-])C(=C\c1ccccc1)/C(=C(/Br)[N+](=O)[O-])c1ccccc1`: the T/C is 95 % of control (dose: 75.0 mg/kg/injection, schedule: Q01DX001 (ip), vehicle: saline) and 92 % of control (dose: 150.0 mg/kg/injection, schedule: Q01DX001 (ip), vehicle: saline).
Consider `CC1(C)C2CCC(=O)C1C2` (stereo not given), for which the T/C (dose: 100.0 mg/kg/injection, schedule: Q04DX003 (ip), vehicle: saline with Tween-80) was 101 % of control; the T/C (dose: 200.0 mg/kg/injection, schedule: Q04DX003 (ip), vehicle: saline with Tween-80) is 96 % of control; the T/C (dose: 400.0 mg/kg/injection, schedule: Q04DX003 (ip), vehicle: saline with Tween-80) was 96 % of control.
As to `CC(=O)NC(c1ccccc1)C(C)C` (stereo not given), the T/C was 92 % of control (dose: 100.0 mg/kg/injection, schedule: Q01DX001 (ip), vehicle: saline with Tween-80) and 103 % of control (dose: 200.0 mg/kg/injection, schedule: Q01DX001 (ip), vehicle: saline with Tween-80).
